{
  "source": "paper PMC10746212",
  "about": "(mBio, 2023)",
  "biological_target": "T1, MdrA (rMdrA) (Brucella abortus, UniProt Q2YN99)",
  "T1 construct": "gene BAB1_0783",
  "T1 sequence (Q2YN99 1-199 limits assumed)": "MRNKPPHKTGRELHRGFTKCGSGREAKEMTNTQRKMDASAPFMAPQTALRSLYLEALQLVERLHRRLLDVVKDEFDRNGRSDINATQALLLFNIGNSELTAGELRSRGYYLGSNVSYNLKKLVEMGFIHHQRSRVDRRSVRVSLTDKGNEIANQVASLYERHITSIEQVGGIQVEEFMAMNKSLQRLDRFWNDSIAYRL",
  "conditions": "192 bp btaE promoter fragment, rMucR present, pH 7.4, room temperature; inhibitor of MdrA displacement activity; no direct binding measured",
  "data": [
    {"smiles": "C[C@H](CCC(=O)O)[C@H]1CC[C@H]2[C@@H]3CC[C@@H]4C[C@H](O)CC[C@]4(C)[C@H]3C[C@H](O)[C@]12C", "note": "[deoxycholate]", "values": [
      {"measurement": "EMSA, displacement of MucR from 32P-labelled btaE promoter DNA by rMdrA", "result": "MdrA can no longer displace MucR from the btaE promoter when deoxycholate"}
    ]}
  ]
}
